Broadly, the IC50 is the concentration needed to halve the response being measured.

The assay deals with hNav1.7 (Homo sapiens (Human), UniProt Q15858). Description: Tritiated aryl sulfonamide binding to membranes from cells expressing hNav1.7 and the β1 subunit (competitive binding). The conditions noted are these: membranes with hNav1.7 and β1 subunit; [3H]compound displacement, 18 h, room temperature; read-out: NaV1.7 395 Memb Binding (IC50). As to the method: Tritiated Aryl Sulfonamide Binding to Membranes Isolated from Cells that Heterologously Express hNav1.7 and the β1 Subunit
hNav1.7, sequence (Q15858 whole entry, looked up): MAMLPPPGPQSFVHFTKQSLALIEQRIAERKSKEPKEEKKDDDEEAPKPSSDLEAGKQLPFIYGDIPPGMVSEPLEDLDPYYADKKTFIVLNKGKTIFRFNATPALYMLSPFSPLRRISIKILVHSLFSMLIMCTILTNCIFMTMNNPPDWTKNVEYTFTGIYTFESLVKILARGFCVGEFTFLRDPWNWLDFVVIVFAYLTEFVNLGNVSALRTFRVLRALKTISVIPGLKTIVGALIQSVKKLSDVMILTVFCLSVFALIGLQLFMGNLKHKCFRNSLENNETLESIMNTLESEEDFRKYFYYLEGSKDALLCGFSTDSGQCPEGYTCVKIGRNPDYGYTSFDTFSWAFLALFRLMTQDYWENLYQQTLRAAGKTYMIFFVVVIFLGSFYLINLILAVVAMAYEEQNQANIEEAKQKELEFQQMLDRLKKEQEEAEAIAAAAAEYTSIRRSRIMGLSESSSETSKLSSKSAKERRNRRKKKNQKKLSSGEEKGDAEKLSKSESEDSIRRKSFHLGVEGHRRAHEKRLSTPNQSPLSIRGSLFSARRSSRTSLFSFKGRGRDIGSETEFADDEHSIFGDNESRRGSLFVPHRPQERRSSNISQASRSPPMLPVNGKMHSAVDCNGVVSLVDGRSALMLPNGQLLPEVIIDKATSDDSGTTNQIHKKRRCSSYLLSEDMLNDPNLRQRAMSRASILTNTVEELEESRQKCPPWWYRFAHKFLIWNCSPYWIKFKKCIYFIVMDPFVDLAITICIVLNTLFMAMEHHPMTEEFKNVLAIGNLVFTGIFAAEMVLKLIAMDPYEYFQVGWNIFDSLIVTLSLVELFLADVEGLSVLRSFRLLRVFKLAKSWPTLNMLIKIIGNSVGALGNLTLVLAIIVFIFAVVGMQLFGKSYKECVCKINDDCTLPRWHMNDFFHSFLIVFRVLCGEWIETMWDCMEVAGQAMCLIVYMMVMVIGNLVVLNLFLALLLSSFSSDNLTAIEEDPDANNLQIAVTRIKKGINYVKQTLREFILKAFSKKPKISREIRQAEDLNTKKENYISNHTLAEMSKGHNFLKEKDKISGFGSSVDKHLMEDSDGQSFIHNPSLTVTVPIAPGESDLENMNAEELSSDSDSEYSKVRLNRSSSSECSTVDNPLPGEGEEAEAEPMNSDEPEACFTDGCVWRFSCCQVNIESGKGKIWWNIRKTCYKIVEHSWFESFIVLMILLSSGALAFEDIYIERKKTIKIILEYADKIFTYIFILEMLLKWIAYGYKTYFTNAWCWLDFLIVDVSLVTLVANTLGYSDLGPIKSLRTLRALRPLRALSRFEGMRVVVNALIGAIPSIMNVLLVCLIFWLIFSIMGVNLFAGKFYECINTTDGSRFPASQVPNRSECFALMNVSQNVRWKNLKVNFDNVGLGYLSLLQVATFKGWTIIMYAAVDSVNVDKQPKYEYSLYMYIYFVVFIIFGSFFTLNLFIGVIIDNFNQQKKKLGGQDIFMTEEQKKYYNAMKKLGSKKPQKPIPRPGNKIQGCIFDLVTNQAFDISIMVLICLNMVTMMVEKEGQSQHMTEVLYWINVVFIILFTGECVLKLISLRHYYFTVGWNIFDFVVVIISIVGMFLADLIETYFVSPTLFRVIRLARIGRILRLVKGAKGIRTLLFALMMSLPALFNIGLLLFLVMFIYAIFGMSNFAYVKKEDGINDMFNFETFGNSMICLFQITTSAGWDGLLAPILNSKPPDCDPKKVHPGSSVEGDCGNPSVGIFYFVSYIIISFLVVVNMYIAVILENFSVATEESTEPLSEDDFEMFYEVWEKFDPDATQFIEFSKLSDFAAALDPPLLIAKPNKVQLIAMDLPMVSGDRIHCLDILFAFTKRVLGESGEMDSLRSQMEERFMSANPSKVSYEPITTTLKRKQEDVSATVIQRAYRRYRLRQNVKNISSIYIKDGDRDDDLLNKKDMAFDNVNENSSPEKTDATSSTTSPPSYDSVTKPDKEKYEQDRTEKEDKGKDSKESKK
hNav1.7, sequence (Q07699 whole entry partner, looked up): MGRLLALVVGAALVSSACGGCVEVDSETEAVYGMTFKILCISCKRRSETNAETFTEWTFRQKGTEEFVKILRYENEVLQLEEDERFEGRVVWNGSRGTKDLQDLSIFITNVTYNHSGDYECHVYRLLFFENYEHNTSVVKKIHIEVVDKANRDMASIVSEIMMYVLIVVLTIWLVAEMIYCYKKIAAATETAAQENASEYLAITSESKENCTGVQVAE
Preparation of membranes containing recombinantly expressed sodium channels: Frozen recombinant cell pellets were thawed on ice and diluted to 4 times the cell pellet weight with ice cold 50 mM Tris HCl, pH 7.4 buffer. The cell suspensions were homogenized on ice using a motorized glass dounce homogeniser. Homogenates were further diluted 8.4 times with ice cold 50 mM Tris HCl, pH 7.4 buffer and then centrifuged at 200×g at 4° C. for 15 min. The supernatants were collected and centrifuged at 10000×g at 4° C. for 50 min. The pellets were then re-suspended in 100 mM NaCl, 20 mM Tris HCl, pH 7.4 buffer containing 1% v/v protease inhibitors (Calbiochem) and re-homogenized on ice. The homogenized membranes were then processed through a syringe equipped with a 26 gauge needle. Protein concentrations were determined by Bradford Assay and the membranes were stored at −80° C.
Radioligand Binding Studies: Saturation experiments. A representative compound of formula (I) was tritiated. Three tritiums were incorporated in place of methyl hydrogens to generate [^3H]compound. Binding of this radioligand was preformed in 5 mL borosilicate glass test tubes at room temperature. Binding was initiated by adding membranes to increasing concentrations of [^3H]compound in 100 mM NaCl, 20 mM Tris HCl, pH 7.4 buffer containing 0.01% w/v bovine serum albumin (BSA) for 18 h. Non-specific binding was determined in the presence of 1 μM unlabelled compound. After 18 h, the reactants were filtered through GF/C glass fiber filters presoaked in 0.5% w/v polyethylene imine. […] [^3H]compound bound to filters was quantified by liquid scintillation counting.
Competitive binding experiments. Binding reactions were preformed in 96-well polypropylene plates at room temperature for 18 h. In 360 μL, membranes were incubated with 100 μM [^3H]compound and increasing concentrations of Test Compound. Non-specific binding was defined in the presence of 1 μM unlabelled compound. Reactions were transferred and filtered through 96-well glass fiber/C filter plates presoaked with 0.5% polyethylene imine. The filtered reactions were washed 5 times with 200 L ice cold buffer containing 0.25% BSA. Bound radioactivity was determined by liquid scintillation counting.
Data Analysis: For saturation experiments, non-specific binding was subtracted from total binding to provide specific binding and these values were recalculated in terms of pmol ligand bound per mg protein. Saturation curves were constructed and dissociation constants were calculated using the single site ligand binding model: Beq=(Bmax*X)/(X+Kd), where Beq is the amount of ligand bound at equilibrium, Bmax is the maximum receptor density, Kd is the dissociation constant for the ligand, and X is the free ligand concentration.
Consider `O=C(NS(=O)(=O)N1CCC2(CC1)COC2)c1cc(C2CC2)c(OCC23CC4CC(CC(C4)C2)C3)cc1F`, for which the IC50 amounted to 630 nM. For `CN(C)S(=O)(=O)NC(=O)c1ccc(OCC23CC4CC(CC(C4)C2)C3)c(C2CC2)c1`, the IC50 came to 16.2 nM. The figure for `CS(=O)(=O)NC(=O)c1cc(Cl)c(OC2CCC3(CCCCC3)CC2)cc1F` is 67 nM; for `O=C(NS(=O)(=O)N1CCC1)c1cc(Cl)c(OCC2CC3C(C2)C3(F)F)cc1F` (stereo not shown) it is 200 nM; for `CC(=O)c1cc(C(=O)NS(=O)(=O)N2CCC2)c(F)cc1OCC12CC3CC(CC(C3)C1)C2` it is 60 nM. `CN(C)S(=O)(=O)NC(=O)c1cc(Cl)c(OCC2(F)CCCCC2)cc1F`: the IC50 worked out at 1680 nM. Regarding `O=C(NS(=O)(=O)N1CC(F)C1)c1cc(C2CC2)c(OCC2CCC(F)(F)CC2)cc1F` [Example 226], the 50% inhibitory concentration (IC50) was 30 nM. With `CC1(C)[C@H]2CC[C@@H](COc3cc(F)c(C(=O)NS(C)(=O)=O)cc3Cl)[C@@H]1C2` the figure was 44 nM. In the case of `O=C(NS(=O)(=O)N1CCOCC1)c1cc(C2CC2)c(O[C@H]2C3CC4CC2C[C@](Cl)(C4)C3)cc1F`, the concentration for half-maximal inhibition (IC50) came out at 16 nM. `CC1(COc2cc(F)c(C(=O)NS(C)(=O)=O)cc2C2CC2)CCC(F)(F)CC1`: the IC50 stood at 18 nM.

With `CS(=O)(=O)NC(=O)c1cc(Cl)c(OCC2C3CC4CC(C3)CC2C4)cc1F` (stereo not shown), the half-maximal inhibitory concentration (IC50) amounted to 17 nM. For `CNS(=O)(=O)NC(=O)c1cc(Cl)c(COc2ccc3c(c2)CC(C)(C)CC3)cc1F`, the 50% inhibitory concentration (IC50) stood at 26 nM.

For the compound `CC(C)(F)c1cc(C(=O)NS(=O)(=O)N2CCC2)c(F)cc1OCC12CC3CC(CC(C3)C1)C2`, the IC50 was determined as 36 nM. With `O=C(NS(=O)(=O)N1CC(F)C1)c1cc(C2CC2)c(OCC2CCCCC2)cc1F` [Example 210], the IC50 was found to be 8 nM. On to `CC1(C)C(COc2cc(F)c(C(=O)NS(C)(=O)=O)cc2Cl)C1(C)C`, for which the IC50 was determined as 94 nM. With `CNS(=O)(=O)NC(=O)c1cc(Cl)c(OC2C3CC4CC2CC(C(=O)OC)(C4)C3)cc1F` (single isomer, unassigned) [Example 452], the 50% inhibitory concentration (IC50) turned out to be 7100 nM. With `CS(=O)(=O)NC(=O)c1cc(Cl)c(OCC23CC4CC(CC(F)(C4)C2)C3)cc1F` the figure was 120 nM. For `CS(=O)(=O)NC(=O)c1ccc(OCC23CC4CC(CC(F)(C4)C2)C3)cc1F`, the IC50 amounted to 1640 nM. The figure for `O=C(NS(=O)(=O)N1CCC1)c1cc(I)c(OCC23CC4CC(CC(C4)C2)C3)cc1F` [Example 222] is 9 nM; for `[2H]C1([2H])C([2H])([2H])C([2H])([2H])C([2H])(COc2cc(F)c(C(=O)NS(C)(=O)=O)cc2Cl)C([2H])([2H])C1([2H])[2H]` it is 210 nM; for `CS(=O)(=O)NC(=O)c1cc(I)c(OCC23CC4CC(CC(C4)C2)C3)cc1F` it is 8 nM. With `CC1(C)C(COc2ccc(C(=O)NS(C)(=O)=O)cc2Cl)C1(C)C` the figure was 181 nM; with `O=C(NS(=O)(=O)CCO)c1cc(Cl)c(OCC23CC4CC(CC(C4)C2)C3)cc1F`, 130 nM. As for `CN(C)S(=O)(=O)NC(=O)c1cc(Cl)c(OC2CCC(C(F)(F)F)CC2)cc1F` (stereo not shown) [Example 138], the IC50 was 1120 nM. Turning to `CS(=O)(=O)NC(=O)c1cc(Cl)c(O[C@H]2C3CC4CC2C[C@](F)(C4)C3)cc1F`, the IC50 was 120 nM. The figure for `O=C(NS(=O)(=O)N1CCC1)c1cc(C2CC2)c(OCC23CCCCC2C3(F)F)cc1F` (stereo not shown) [Example 434] is 11 nM; for `O=C(NS(=O)(=O)N1CCC1)c1cc(C2CC2)c(OCC23CC4CC(C2)CC(OC(=O)C(F)(F)F)(C4)C3)cc1F` it is 35 nM; for `O=C(NS(=O)(=O)N1CCC1)c1cc(C2CC2)c(OCC2CC3CC3C2)cc1F` (stereo not shown) [Example 454] it is 18 nM. The figure for `O=C(NS(=O)(=O)N1CC2(CCO2)C1)c1cc(C2CC2)c(OCC23CC4CC(CC(C4)C2)C3)cc1F` is 40 nM; for `O=C(NS(=O)(=O)C1CCC1)c1cc(C2CC2)c(OCC23CC4CC(CC(C4)C2)C3)cc1F` [Example 211] it is 2 nM. As to `CS(=O)(=O)NC(=O)c1cnc(OCC23CC4(F)CC(F)(CC(F)(C4)C2)C3)c(Cl)c1`, the 50% inhibitory concentration (IC50) amounted to 21500 nM. For the compound “trans-5-cyclopropyl-N-(cyclopropylsulfonyl)-2-fluoro-4-((4-(trifluoromethyl)-cyclohexyl)methoxy)benzamide [Example 259]”, the half-inhibitory concentration (IC50) was determined as 20 nM. Consider `CS(=O)(=O)NC(=O)c1cc(Cl)c(OC2C3CC4CC(C3)CC2C4)cc1F` (stereo not shown) [Example 9], for which the IC50 is 40 nM. As to `CN(C)S(=O)(=O)NC(=O)c1cc(Cl)c(OC2C3CC4CC2CC(Cl)(C4)C3)cc1F` (stereo not shown), the IC50 is 283 nM. Turning to `O=C(NS(=O)(=O)C1CC1)c1cc(C2CC2)c(OC[C@H]2CC[C@H](C(F)(F)F)CC2)cc1F` [Example 435, 5-cyclopropyl-N-(cyclopropylsulfonyl)-2-fluoro-4-(((1r,4r)-4-(trifluoromethyl)cyclohexyl)methoxy)benzamide], the IC50 amounted to 3 nM. `CS(=O)(=O)NC(=O)c1ccc(C2C3CC4CC(C3)CC2C4)c(Cl)c1` (stereo not shown) [Example 180]: the half-maximal inhibitory concentration (IC50) is 1200 nM. `CC(O)c1cc(C(=O)NS(=O)(=O)N2CCC2)c(F)cc1OCC12CC3CC(CC(C3)C1)C2` (stereo not shown): the IC50 turned out to be 12 nM. Regarding `CS(=O)(=O)NC(=O)c1cc(C2CC2)c(OCC2(F)C3CC4CC(C3)CC2C4)cc1F` (stereo not shown), the IC50 came to 4 nM. For the compound `CS(=O)(=O)NC(=O)c1cc(Cl)c(OC2CC3CC2C2CCCC32)cc1F` (stereo not shown), the IC50 stood at 205 nM. Regarding `O=C(NS(=O)(=O)CCO)c1cc(C2CC2)c(OCC2CCCCC2)cc1F`, the IC50 was 66 nM. For `CN(C)S(=O)(=O)NC(=O)c1cc(Cl)c(OCCCC2CCCCC2)cc1F`, the IC50 came out at 295 nM. `CS(=O)(=O)NC(=O)c1ccc(OCC2CCC3(CC2)CC3)cc1F`: the 50% inhibitory concentration (IC50) was 152 nM. On to `CN(C)S(=O)(=O)NC(=O)c1cc(Cl)c(OCCC2CCC2)cc1F` [Example 140], for which the IC50 is 885 nM. Regarding `COCCNS(=O)(=O)NC(=O)c1cc(C2CC2)c(OCC23CC4CC(CC(C4)C2)C3)cc1F`, the IC50 is 12 nM. With `COCCS(=O)(=O)NC(=O)c1cc(C2CC2)c(OCC2(C(F)(F)F)CCCCC2)cc1F`, the IC50 turned out to be 30 nM. As to `CCOCCS(=O)(=O)NC(=O)c1cc(C2CC2)c(OCC23CC4CC(CC(C4)C2)C3)cc1F`, the IC50 is 12 nM.

Consider `CS(=O)(=O)NC(=O)c1ccc(OCC23CC4CC(CC(C4)C2)C3)c(C2CCC2)c1`, for which the 50% inhibitory concentration (IC50) amounted to 9 nM.

On to `COC(=O)C12CC3CC(C1)C(Oc1cc(F)c(C(=O)NS(C)(=O)=O)cc1Cl)C(C3)C2` (single isomer, unassigned) [Example 451], for which the IC50 amounted to 270 nM.

Regarding `CN(C)S(=O)(=O)NC(=O)c1cc(Cl)c(COc2ccc3c(c2)CC(C)(C)CC3)cc1F`, the IC50 came to 106 nM.

In the case of `O=C(NS(=O)(=O)C1CC1)c1cc(C2CC2)c(OCC2CC3CC3C2)cc1F` (stereo not shown), the IC50 is 11 nM. With `CNS(=O)(=O)NC(=O)c1cc(Cl)c(COc2ccc3c(c2)CCC(C)(C)O3)cc1F` the figure was 170 nM. Consider `CC1(C)CCC(Oc2cc(F)c(C(=O)NS(C)(=O)=O)cc2Cl)CC1`, for which the IC50 worked out at 166 nM. With `CC1(C)[C@H]2CC[C@](C)(C2)[C@H]1Oc1cc(F)c(C(=O)NS(C)(=O)=O)cc1Cl`, the IC50 amounted to 7120 nM. `CS(=O)(=O)NC(=O)c1cc(Cl)c(OC2CCC(C(F)(F)F)CC2)cc1F` (stereo not shown) [Example 128]: the IC50 is 291 nM. The figure for `CC(C)(C)OC(=O)N1CCCC(COc2cc(F)c(C(=O)NS(C)(=O)=O)cc2F)C1` (stereo not shown) is 9990 nM; for `CN(C)S(=O)(=O)NC(=O)c1cc(Cl)c(OCC2C3CC4CC(C3)CC2C4)cc1F` (stereo not shown) it is 51 nM; for `N#CC1CN(S(=O)(=O)NC(=O)c2cc(C3CC3)c(OCC34CC5CC(CC(C5)C3)C4)cc2F)C1` it is 12 nM. Turning to `CNS(=O)(=O)NC(=O)c1cc(Cl)c(OC2C3CC4CC2CC(C(=O)OC)(C4)C3)cc1F` (single isomer, unassigned) [Example 453], the concentration for half-maximal inhibition (IC50) was 950 nM. Regarding `O=C(NS(=O)(=O)N1CCOCC1)c1cc(Cl)c(OCC23CC4CC(CC(C4)C2)C3)cc1F`, the IC50 is 55 nM. With `CNS(=O)(=O)NC(=O)c1ccc(C2C3CC4CC(C3)CC2C4)c(Cl)c1` (stereo not shown), the IC50 came to 1700 nM. For the compound `CS(=O)(=O)NC(=O)c1cc(Cl)c(OCC2CCCCC2)cc1F`, the IC50 was 140 nM.

(Values after patent publication US8952169B2 (Genentech, Inc., priority 2012, dated 2015).)
